# Values quoted from earlier work as cited in PubChem BioAssay AID1259410 (Chemical Carcinogenesis Research Information System (CCRIS), 2018).
# Test system: rodent tumor promotion studies, tumor incidence
# Assay: CCRIS tumor promotion studies
structure (smiles),measurement,setting,value
CCCCCCCCCCCCCC(=O)O[C@@H]1[C@@H](C)[C@@]2(O)[C@@H](C=C(CO)C[C@]3(O)C(=O)C(C)=C[C@@H]23)[C@@H]2C(C)(C)[C@]12OC(C)=O,outcome,"Carcinogen: 7,12-DIMETHYLBENZ(A)ANTHRACENE, Doses [Carcinogen]: IG TO MOTHERS, Route [Carcinogen]: GAVAGE, Route [Promoter]: DERMAL, Species: MOUSE, Strain/Sex: NMRI/MALE,FEMALE",integumentary system (skin); forestomach; stomach; liver; lung; colon; kidney; r
same,outcome,"Carcinogen: 7,12-DIMETHYLBENZ(A)ANTHRACENE, Doses [Carcinogen]: IG, Route [Carcinogen]: GAVAGE, Route [Promoter]: GAVAGE, Species: MOUSE, Strain/Sex: FEMALE",forestomach
same,outcome,"Carcinogen: 7,12-DIMETHYLBENZ(A)ANTHRACENE, Doses [Carcinogen]: TOP, Route [Carcinogen]: DERMAL, Route [Promoter]: DERMAL, Species: MOUSE, Strain/Sex: MALE,FEMALE",integumentary system (skin)
same,outcome,"Carcinogen: 7,12-DIMETHYLBENZ(A)ANTHRACENE, Doses [Carcinogen]: TRANS-PLACENTAL, Route [Carcinogen]: TRANS-PLACENTAL, Route [Promoter]: DERMAL, Species: MOUSE, Strain/Sex: NMRI/MALE,FEMALE",integumentary system (skin); lung; liver
same,outcome,"Carcinogen: 7,12-DIMETHYLBENZO[K]FLUORANTHENE, 95741-56-3, Doses [Carcinogen]: 4 UMOL (TOTAL DOSE) ADMINISTERED IN 10 SUBDOSES 1/2 D, Doses [Promoter]: 2.5 UG IN 0.1 ML ACETONE 3/WK FOR 30 WK BEGINNING 10 D POST CARCINOGEN TREATMENT (STUDY DURATION: 33 WK), Route [Carcinogen]: DERMAL, Route [Promoter]: DERMAL, Species: MOUSE, Strain/Sex: CRL:CD-1/FEMALE",skin: tumor
same,outcome,"Carcinogen: 7,12-DIMETHYLBENZ[A]ANTHRACENE-3,4-DIOL, 71964-72-2, Doses [Carcinogen]: 4, 10 NMOL ONCE, Doses [Promoter]: 0, 3.4 NMOL 2/WK FOR 19 WK BEGINNING 2 WK POST CARCINOGEN DOSE (STUDY DURATION: 21 WK), Route [Carcinogen]: DERMAL, Route [Promoter]: DERMAL, Species: MOUSE, Strain/Sex: SENCAR/FEMALE",skin: papilloma
same,outcome,"Carcinogen: 7,12-DIMETHYLBENZ[A]ANTHRACENE, 57-97-6, Doses [Carcinogen]: 1 NMOL IN 100 µL ACETONE, Doses [Promoter]: 2.16 NMOL IN 100 µL ACETONE 2/WK FOR 27 WK BEGINNING 1 WK POST CARCINOGEN DOSE (STUDY DURATION: 28 WK), Route [Carcinogen]: DERMAL, Route [Promoter]: DERMAL, Species: MOUSE, Strain/Sex: SENCAR/FEMALE",skin: tumor
same,outcome,"Carcinogen: 7,12-DIMETHYLBENZ[A]ANTHRACENE, 57-97-6, Doses [Carcinogen]: 4, 20, 100 NMOL IN 100 µL ACETONE ONCE, Doses [Carcinogen]: 4, 20, 100 NMOL IN 100 µL ACETONE ONCE, Doses [Promoter]: 3.24 NMOL/100 µL ACETONE 2/WK BEGINNING 2 WK POST CARCINOGEN DOSE AND CONTINUING FOR 24 WK (STUDY DURATION: 27 WK), Route [Carcinogen]: DERMAL, Route [Promoter]: DERMAL, Species: MOUSE, Strain/Sex: SENCAR/FEMALE",skin: tumor
same,outcome,"Carcinogen: 7,12-DIMETHYLBENZ[A]ANTHRACENE, 57-97-6, Doses [Carcinogen]: 10 NMOL APPLIED TO BACK ONCE, Doses [Promoter]: 1.5 NMOL 2/WK FOR 19 WK BEGINNING 1 WK POST CARCINOGEN DOSE (STUDY DURATION: 40 WK), Route [Carcinogen]: DERMAL, Route [Promoter]: DERMAL, Species: MOUSE, Strain/Sex: HRA/SKH/FEMALE",skin: papilloma
same,outcome,"Carcinogen: 7,12-DIMETHYLBENZ[A]ANTHRACENE, 57-97-6, Doses [Carcinogen]: 20 NMOL IN ACETONE ONCE, Doses [Promoter]: 0, 0.2 ML OF 10 UG/ML SOLUTION IN ACETONE 2/WK FOR 51 WK (STUDY DURATION: 52 WK), Route [Carcinogen]: DERMAL, Route [Promoter]: DERMAL, Species: MOUSE, Strain/Sex: SENCAR/FEMALE",skin: squamous cell carcinoma
same,outcome,"Carcinogen: 7,12-DIMETHYLBENZ[A]ANTHRACENE, 57-97-6, Doses [Carcinogen]: 20 NMOL ONCE, Doses [Promoter]: 0, 1, 2, 5 UG IN 200 µL ACETONE 2/WK FOR 23 WK BEGINNING 1 WK POST CARCINOGEN DOSE (STUDY DURATION: 24 WK), Doses [Promoter]: 0, 1, 2, 5 UG IN 200 µL ACETONE 2/WK FOR 23 WK BEGINNING 1 WK POST CARCINOGEN DOSE (STUDY DURATION: 24 WK), Route [Carcinogen]: DERMAL, Route [Promoter]: DERMAL, Species: MOUSE, Strain/Sex: 129/SVEV/FEMALE",skin: tumor
same,outcome,"Carcinogen: 7,12-DIMETHYLBENZ[A]ANTHRACENE, 57-97-6, Doses [Carcinogen]: 100 NMOL ONCE, Doses [Promoter]: 0, 1, 2, 5 UG IN 200 µL ACETONE 2/WK FOR 23 WK BEGINNING 1 WK POST CARCINOGEN DOSE (STUDY DURATION: 24 WK), Doses [Promoter]: 0, 1, 2, 5 UG IN 200 µL ACETONE 2/WK FOR 23 WK BEGINNING 1 WK POST CARCINOGEN DOSE (STUDY DURATION: 24 WK), Route [Carcinogen]: DERMAL, Route [Promoter]: DERMAL, Species: MOUSE, Strain/Sex: 129/SVEV/FEMALE",skin: tumor
same,outcome,"Carcinogen: 7,12-DIMETHYLBENZ[A]ANTHRACENE, 57-97-6, Doses [Carcinogen]: 100 NMOL ONCE, Doses [Promoter]: 10 NMOL 2/WK FOR 24 WK BEGINNING 1 WK POST CARCINOGEN DOSE (STUDY DURATION: 25 WK), Route [Carcinogen]: DERMAL, Route [Promoter]: DERMAL, Species: NMRI/FEMALE G, Strain/Sex: NMRI/FEMALE",skin: tumor
same,outcome,"Carcinogen: 7,12-DIMETHYLBENZ[A]ANTHRACENE, 57-97-6, Doses [Carcinogen]: 200 NMOL IN 100 µL ACETONE ONCE, Doses [Promoter]: 0, 5 NMOL IN 100 µL ACETONE 2/WK FOR 20 WK BEGINNING 1 WK POST CARCINOGEN DOSE (STUDY DURATION: 21 WK), Route [Carcinogen]: DERMAL, Route [Promoter]: DERMAL, Species: MOUSE, Strain/Sex: CD-1/FEMALE",skin: papilloma
same,outcome,"Carcinogen: 7-FLUOROBENZO[B]FLUORANTHENE, 89883-22-7, Doses [Carcinogen]: 10, 40, 120, 400 NMOL (TOTAL DOSE) APPLIED 1/2 D FOR 10 SUBDOSES, Doses [Carcinogen]: 10, 40, 120, 400 NMOL (TOTAL DOSE) APPLIED 1/2 D FOR 10 SUBDOSES, Doses [Promoter]: 0, 2.5 UG IN 100 µL ACETONE 3/WK FOR 20 WK BEGINNING 10 D POST CARCINOGEN TREATMENT (STUDY DURATION: 22 WK), Route [Carcinogen]: DERMAL, Route [Promoter]: DERMAL, Species: MOUSE, Strain/Sex: CRL:CD-1/FEMALE",skin: tumor
same,outcome,"Carcinogen: 7-METHYLBENZ[A]ANTHRACENE-3,4-DIOL, 175614-82-1, Doses [Carcinogen]: 200, 400 NMOL ONCE, Doses [Promoter]: 0, 3.4 NMOL 2/WK FOR 19 WK BEGINNING 2 WK POST CARCINOGEN DOSE (STUDY DURATION: 21 WK), Route [Carcinogen]: DERMAL, Route [Promoter]: DERMAL, Species: MOUSE, Strain/Sex: SENCAR/FEMALE",skin: papilloma
same,outcome,"Carcinogen: 8-METHYLBENZO[K]FLUORANTHENE, 95741-54-1, Doses [Carcinogen]: 4 UMOL (TOTAL DOSE) ADMINISTERED IN 10 SUBDOSES 1/2 D, Doses [Promoter]: 2.5 UG IN 0.1 ML ACETONE 3/WK FOR 30 WK BEGINNING 10 D POST CARCINOGEN TREATMENT (STUDY DURATION: 33 WK), Route [Carcinogen]: DERMAL, Route [Promoter]: DERMAL, Species: MOUSE, Strain/Sex: CRL:CD-1/FEMALE",skin: tumor
same,outcome,"Carcinogen: 9-FLUORO-7,12-DIMETHYLBENZ[A]ANTHRACENE-3,4-DIOL, 175614-88-7, Doses [Carcinogen]: 4, 10 NMOL ONCE, Doses [Promoter]: 0, 3.4 NMOL 2/WK FOR 19 WK BEGINNING 2 WK POST CARCINOGEN DOSE (STUDY DURATION: 21 WK), Route [Carcinogen]: DERMAL, Route [Promoter]: DERMAL, Species: MOUSE, Strain/Sex: SENCAR/FEMALE",skin: papilloma
same,outcome,"Carcinogen: 9-FLUORO-7-METHYLBENZ[A]ANTHRACENE-3,4-DIOL, 175614-83-2, Doses [Carcinogen]: 200, 400 NMOL ONCE, Doses [Promoter]: 0, 3.4 NMOL 2/WK FOR 19 WK BEGINNING 2 WK POST CARCINOGEN DOSE (STUDY DURATION: 21 WK), Route [Carcinogen]: DERMAL, Route [Promoter]: DERMAL, Species: MOUSE, Strain/Sex: SENCAR/FEMALE",skin: papilloma
same,outcome,"Carcinogen: 9-FLUORO-12-METHYLBENZ[A]ANTHRACENE-3,4-DIOL, 175614-86-5, Doses [Carcinogen]: 200, 400 NMOL ONCE, Doses [Promoter]: 0, 3.4 NMOL 2/WK FOR 19 WK BEGINNING 2 WK POST CARCINOGEN DOSE (STUDY DURATION: 21 WK), Route [Carcinogen]: DERMAL, Route [Promoter]: DERMAL, Species: MOUSE, Strain/Sex: SENCAR/FEMALE",skin: papilloma
same,outcome,"Carcinogen: 9-METHYLBENZO[K]FLUORANTHENE, 95741-55-2, Doses [Carcinogen]: 4 UMOL (TOTAL DOSE) ADMINISTERED IN 10 SUBDOSES 1/2 D, Doses [Promoter]: 2.5 UG IN 0.1 ML ACETONE 3/WK FOR 30 WK BEGINNING 10 D POST CARCINOGEN TREATMENT (STUDY DURATION: 33 WK), Route [Carcinogen]: DERMAL, Route [Promoter]: DERMAL, Species: MOUSE, Strain/Sex: CRL:CD-1/FEMALE",skin: tumor
same,outcome,"Carcinogen: 10-FLUORO-7,12-DIMETHYLBENZ[A]ANTHRACENE-3,4-DIOL, 175614-89-8, Doses [Carcinogen]: 4, 10 NMOL ONCE, Doses [Promoter]: 0, 3.4 NMOL 2/WK FOR 19 WK BEGINNING 2 WK POST CARCINOGEN DOSE (STUDY DURATION: 21 WK), Route [Carcinogen]: DERMAL, Route [Promoter]: DERMAL, Species: MOUSE, Strain/Sex: SENCAR/FEMALE",skin: papilloma
same,outcome,"Carcinogen: 10-FLUORO-7-METHYLBENZ[A]ANTHRACENE-3,4-DIOL, 175614-84-3, Doses [Carcinogen]: 200, 400 NMOL ONCE, Doses [Promoter]: 0, 3.4 NMOL 2/WK FOR 19 WK BEGINNING 2 WK POST CARCINOGEN DOSE (STUDY DURATION: 21 WK), Route [Carcinogen]: DERMAL, Route [Promoter]: DERMAL, Species: MOUSE, Strain/Sex: SENCAR/FEMALE",skin: papilloma
same,outcome,"Carcinogen: 10-FLUORO-12-METHYLBENZ[A]ANTHRACENE-3,4-DIOL, 175614-87-6, Doses [Carcinogen]: 200, 400 NMOL ONCE, Doses [Promoter]: 0, 3.4 NMOL 2/WK FOR 19 WK BEGINNING 2 WK POST CARCINOGEN DOSE (STUDY DURATION: 21 WK), Route [Carcinogen]: DERMAL, Route [Promoter]: DERMAL, Species: MOUSE, Strain/Sex: SENCAR/FEMALE",skin: papilloma
same,outcome,"Carcinogen: 10-FLUOROBENZO[J]FLUORANTHENE, 129286-37-9, Doses [Carcinogen]: 1, 2 UMOL (TOTAL DOSE) ADMINISTERED IN SUBDOSES 1/2 D, Doses [Promoter]: 2.5 UG IN 100 µL ACETONE 3/WK FOR 20 WK BEGINNING 10 D POST LAST CARCINOGEN DOSE (STUDY DURATION: 27 WK), Route [Carcinogen]: DERMAL, Route [Promoter]: DERMAL, Species: MOUSE, Strain/Sex: CD-1/FEMALE",skin: tumor
same,outcome,"Carcinogen: 12-METHYLBENZ[A]ANTHRACENE-3,4-DIOL, 175614-85-4, Doses [Carcinogen]: 200, 400 NMOL ONCE, Doses [Promoter]: 0, 3.4 NMOL 2/WK FOR 19 WK BEGINNING 2 WK POST CARCINOGEN DOSE (STUDY DURATION: 21 WK), Route [Carcinogen]: DERMAL, Route [Promoter]: DERMAL, Species: MOUSE, Strain/Sex: SENCAR/FEMALE",skin: papilloma
